Reference: PMC4790291, “Short, Synthetic Cationic Peptides Have Antibacterial Activity against Mycobacterium smegmatis by Forming Pores in Membrane and Synergizing with Antibiotics” (Antibiotics, 2015)
Converted amounts (≈) assume the structure as drawn. “And” between values parts separate entries of the source, which are not always exact repeats. Equal values may be shown once. Read-outs that look alike come from different tables or passages of the source. Positions of bridges follow the written chain, without caps; N, C: chain ends. Non-standard residues stand in square brackets, D forms with d. Residues, ends and D or L forms follow the SMILES beside them. No end group written: not given here. *: point of attachment. X1 = CC[C@H](C)CCCCC(=O)*; Dab = NCC[C@H](N)C(=O)O

Experiments:
M. smegmatis [1] = conditions: for MIC: 48 h
M. smegmatis mc^2155 [2] = tested on: M. smegmatis mc^2155
Method: (§1) The antimicrobial activity for each peptide was determined through 3 h incubation time. The appropriate dilutions of each well were plated in triplicate and the extent of killing for the peptides were determined.
(§2) Briefly, 1 × 10^5 CFU per well of bacteria were incubated with different peptide concentrations in a 50 μL solution of Buffer Q consisting of 10 mM potassium phosphate buffer at pH 7.2 and 0.1% MB7H9 (3 h, 37 °C). Serial dilutions were then prepared in Buffer Q and plated in triplicate on MB7H9 plates, which were incubated (37 °C, 24 to 48 h) and CFUs counted. […] EC50 values were determined by plotting percent killing as a function of the log of peptide concentration (log μg/mL), and fitting the data from the antimicrobial assays to a standard sigmoidal dose-response curve, using Equation (1), where Y corresponds to bacterial killing (%) at a given peptide concentration (μg/mL), with X being the logarithm of that concentration (log μg/mL). In the equation, “Top” and “Bottom” refer to the upper and lower boundaries, and were constrained to values <100% and >0%, respectively.

M. smegmatis mc^2155 [3] = test: microbe, parasite or virus in culture; conditions: Mycolicibacterium smegmatis, MC^2155, 3 h
Method: as §1, §2

M. tuberculosis [4] = conditions: LL-37 ref 30; hBD3 ref 33; cited from earlier work
Method: While the EC50 experiments are typically carried out in 10 mM phosphate buffer with pH 7.2 for 3 h, the Minimal Inhibitory Concentration (MIC) is determined in bacterial broth (resulting in a higher salt concentration) with a 48 h incubation. We confirmed the sensitivity of M. smegmatis to common antibiotics such as polymyxin B, rifampicin, and fosmidomycin [35, 36, 37]. […] The reported MIC of full-length hBD ...

M. smegmatis [5] = test: Ethidium bromide uptake assay (membrane permeation); conditions: 50 μg/mL peptide, 10 μM ethidium bromide, examined at 20 min, 37 °C, n = 3, Figure 2
Method: Bacterial cytoplasmic membrane permeation is monitored by using the ethidium bromide uptake assay. […] M. smegmatis is grown until log phase in MB7H9 (Difco) broth with 2% (w/v) glucose as the carbon source, and 0.05% (v/v) Tween 80 in a shaking incubator (37 °C). Bacteria is centrifuged, washed with PBS, and then adjusted to an OD 600 nm of 0.1 Phosphate Buffer. 180 μL of bacteria is added to 10 μL ethidium bromide (10 μM final concentration) and 10 μL peptide in various concentrations, the experiment was performed in triplicate. The plate is read in a Tecan Safire^2 spectrofluorometer every 2 min for 30 min at 37 °C: (excitation = 540 nm, emission = 590 nm). Peak RFU at 20 min is used in Figure 2, and values were analyzed against wells with no peptide treatment with a Student’s t-test.
Permeablization of membrane after 20 min was compared. Experiments were performed in triplicate (n = 3).

M. smegmatis [6] = tested on: M. smegmatis; design: method as in earlier work; conditions: 10 μg/mL of LL-37; ref 9 (Sonawane et al.); cited from earlier work
M. smegmatis membrane = test: Bacterial cytoplasmic membrane depolarization assay, DiSC3(5); type: cell-based, Mycobacterium smegmatis
Method: Membrane depolarization assay was studied using DiSC3(5) as previously reported. Depolarization of a membrane can be visualized by a […] in fluorescence. After interaction with intact cytoplasmic membrane, the fluorescent probe DiSC3(5) was quenched. After incubation with the antimicrobial peptide, the membrane potential was lost, and the probe was released to the medium, ensuing in an increase of fluorescence that can be quantified and monitored as a function of time. In brief, enumerated frozen bacteria were pelleted and washed twice in phosphate buffer (pH 7.2) and then resuspended to 4 × 10^7 CFU/mL in phosphate buffer containing 50 μg/mL DiSC3(5). Then, 100 uLs of this suspension was added to wells of a black 96-well plate. The plate was incubated in a TECAN Safire2 spectrofluorometer and monitored until fluorescence leveled off. Next, 100 μLs of various concentrations of peptide in phosphate buffer (pH 7.2) were added to each well. Bacteria without peptide and peptide without bacteria served as controls. The plate was immediately returned to the spectrofluorometer. Readings were taken every 15 s for 5 min (excitation = 622 nm; emission = 670 nm).
Figure 1 Membrane depolarization activity by LL-37, mCRAMP, hBD3-Pep4, ATRA-1A, ATRA-2, and NA-CATH. Depolarization determined using DiSC3(5) (50 μg/mL) at multiple concentrations of peptide (50, 25, 5, and 0.5 μg/mL). […]

M. tuberculosis [7] = conditions: 100 μg/mL of peptide; cited from earlier work
M. smegmatis [8] = conditions: for MIC Alone / MIC Combined (antibiotic): checkerboard; for MIC Alone: 37 °C, about 10^5 CFU/mL, single agent; for FIC (peptide) / FIC (antibiotic): MIC in combination/MIC alone; for FICI: FICI ≤ 0.5 synergy, 0.5-1.0 additive, 1.0-4.0 indifferent, > 4.0 antagonism
M. smegmatis [9] = test: microbe, parasite or virus in culture; conditions: Mycolicibacterium smegmatis, 72 h, read-out: MIC Alone
M. smegmatis [10] = test: microbe, parasite or virus in culture; conditions: Mycolicibacterium smegmatis, 48 h
[11] = cited from earlier work
[12] = from MIC in μM, above 1 = less potent than rifampicin
[13] = from EC50 in μM, above 1 = more potent than rifampicin
[14] = same assay as μg/mL value, 3 h, 10 mM phosphate buffer
[15] = in combination with polymyxin B
[16] = peptide combined with polymyxin B

O=CN(O)CCCP(=O)(O)O [Fosmidomycin]
Fold vs. Rifampicin (μM) (M. smegmatis [1]; [12]): 0.39
Fold vs. Rifampicin (M. smegmatis mc^2155 [2]; [13]): 0.20
EC50 (M. smegmatis mc^2155 [3]): 780 nM
EC50 (M. smegmatis mc^2155 [3]; pH 7.2): 0.14 µg/mL

CC[C@H](C)[C@H](NC(=O)[C@H](CCCCN)NC(=O)[C@H](CCC(=O)O)NC(=O)[C@H](CCCCN)NC(=O)[C@H](CO)NC(=O)[C@H](CCCCN)NC(=O)[C@H](CCCNC(=N)N)NC(=O)[C@H](Cc1ccccc1)NC(=O)[C@H](Cc1ccccc1)NC(=O)[C@H](CC(=O)O)NC(=O)CNC(=O)[C@H](CC(C)C)NC(=O)[C@@H](N)CC(C)C)C(=O)NCC(=O)N[C@@H](CCCCN)C(=O)N[C@@H](CCC(=O)O)C(=O)N[C@@H](Cc1ccccc1)C(=O)N[C@@H](CCCCN)C(=O)N[C@@H](CCCNC(=N)N)C(=O)N[C@H](C(=O)N[C@H](C(=O)N[C@@H](CCC(N)=O)C(=O)N[C@@H](CCCNC(=N)N)C(=O)N[C@H](C(=O)N[C@@H](CCCCN)C(=O)N[C@@H](CC(=O)O)C(=O)N[C@@H](Cc1ccccc1)C(=O)N[C@@H](CC(C)C)C(=O)N[C@@H](CCCNC(=N)N)C(=O)N[C@@H](CC(N)=O)C(=O)N[C@@H](CC(C)C)C(=O)N[C@H](C(=O)N1CCC[C@H]1C(=O)N[C@@H](CCCNC(=N)N)C(=O)N[C@H](C(=O)N[C@@H](CCC(=O)O)C(=O)N[C@@H](CO)C(=O)O)[C@@H](C)O)C(C)C)[C@@H](C)CC)C(C)C)[C@@H](C)CC [LL-37]
Fold vs. Rifampicin (μM) (M. smegmatis [1]; [12]): 0.85
EC50 (M. smegmatis mc^2155 [2]; 1 × 10^5 CFU per well, 10 mM potassium phosphate buffer pH 7.2 with 0.1% MB7H9, 3 h, 37 °C, CFU plated in triplicate, sigmoidal fit): 0.27 µg/mL
Fold vs. Rifampicin (M. smegmatis mc^2155 [2]; [13]): 2.65
EC50 (M. smegmatis mc^2155 [2]; [14]): 60 nM
MIC against M. tuberculosis (M. tuberculosis [4]): 5 µg/mL (≈ 1.11 µM)
Extent of permeabilization (ethidium bromide uptake) (M. smegmatis [5]): very efficient
Intracellular killing (M. smegmatis [6]): 50%
Membrane depolarization (M. smegmatis membrane; DiSC3(5) 50 μg/mL, within 1 min, peptide 50, 25, 5 and 0.5 μg/mL, phosphate buffer pH 7.2, n = 6, Figure 1): > 70%
Lowest concentration that depolarizes the M. smegmatis membrane (M. smegmatis membrane; DiSC3(5), p < 0.001): ≤ 0.5 µg/mL
Killing of M. tuberculosis (M. tuberculosis [7]): 65%
MIC Alone (M. smegmatis [8]; 72 h): 31.3 µg/mL
FIC (peptide) (M. smegmatis [8]; [15]): 0.12
FIC (peptide) (M. smegmatis [8]; in combination with rifampicin): 0.12
FICI (M. smegmatis [8]; [16]): 0.37

CC[C@H](C)CCCCC(=O)N[C@@H](CCN)C(=O)N[C@H](C(=O)N[C@@H](CCN)C(=O)N[C@H]1CCNC(=O)[C@H]([C@@H](C)O)NC(=O)[C@H](CCN)NC(=O)[C@H](CCN)NC(=O)[C@H](CC(C)C)NC(=O)[C@@H](Cc2ccccc2)NC(=O)[C@H](CCN)NC1=O)[C@@H](C)O [Polymyxin B] (X1-[Dab]T[Dab][Dab][Dab][dF]L[Dab][Dab]T; lactam 4-C (inferred); N-terminus assumed)
Fold vs. Rifampicin (μM) (M. smegmatis [1]): 1.26
MIC (M. smegmatis [1]): 5.99 µM (≈ 7.21 µg/mL)
Fold vs. Rifampicin (M. smegmatis mc^2155 [2]): 1.65
EC50 (M. smegmatis mc^2155 [2]; mc^2155, 3 h): 96 nM
MIC Alone (M. smegmatis [8]; 72 h): 7.8 µg/mL

CO[C@H]1/C=C/O[C@@]2(C)Oc3c(C)c(O)c4c(O)c(c(/C=N/N5CCN(C)CC5)c(O)c4c3C2=O)NC(=O)/C(C)=C\C=C\[C@H](C)[C@H](O)[C@@H](C)[C@@H](O)[C@@H](C)[C@H](OC(C)=O)[C@@H]1C [Rifampicin]
MIC (M. smegmatis [9]): 3.9 µg/mL (≈ 4.74 µM)
Fold vs. Rifampicin (μM) (M. smegmatis [1]; [12]): 1
Fold vs. Rifampicin (M. smegmatis mc^2155 [2]; [13]): 1.0
MIC (M. smegmatis [10]): 3.9 µg/mL and 4.73 µM
EC50 (M. smegmatis mc^2155 [3]): 159 nM
EC50 (M. smegmatis mc^2155 [3]; pH 7.2): 0.13 µg/mL
MIC Combined (antibiotic) (M. smegmatis [8]; in combination with ATRA-1A, 72 h): 1.95 µg/mL
MIC Combined (antibiotic) (M. smegmatis [8]; in combination with LL-37, 72 h): 0.97 µg/mL
MIC Combined (antibiotic) (M. smegmatis [8]; in combination with hBD3-Pep4, 72 h): 1.95 µg/mL
MIC Combined (antibiotic) (M. smegmatis [8]; in combination with mCRAMP, 72 h): 0.97 µg/mL
FIC (antibiotic) (M. smegmatis [8]; in combination with ATRA-1A): 0.5
FIC (antibiotic) (M. smegmatis [8]; in combination with LL-37): 0.25
FIC (antibiotic) (M. smegmatis [8]; in combination with hBD3-Pep4): 0.5
FIC (antibiotic) (M. smegmatis [8]; in combination with mCRAMP): 0.25

GLLRKGGEKIGEKLKKIGQKIKNFFQKLVPQPEQ [mCRAMP]
MIC (M. smegmatis [1]): 4.02 µM
EC50 (M. smegmatis mc^2155 [2]; mc^2155, 3 h): 44 nM
Hemolytic activity [11]: no hemolytic activity

KRAKKFFKKLK-NH2 [ATRA-1A]
EC50 (M. smegmatis mc^2155 [2]; [14]): 35 nM
Hemolysis ([11]; compared to PBS (pH 7)): did not elicit statistically significant hemolysis
FIC (peptide) (M. smegmatis [8]; [15]): 0.12
FICI (M. smegmatis [8]; [16]): 0.37
FICI (M. smegmatis [8]; peptide combined with rifampicin): 0.56

RGRRSSRRKK-NH2 [hBD3-Pep4]
MIC (M. smegmatis [1]): 48.65 µM
EC50 (M. smegmatis mc^2155 [2]; mc^2155, 3 h): 287 nM
